Measured values published in PubChem BioAssay (NCI).
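Method: 48-hour compound exposure of cells in 96-well plates, five concentrations, linear interpolation of endpoints. At the TGI there is no net growth.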

Columns and labels:
Assay in all cases: NCI anticancer screen, dose series, 48 h
[1] = test system: ACHN renal
[2] = test system: COLO 205 colon
[3] = test system: HCT-15 colon
[4] = test system: HL-60(TB) leukemia
[5] = test system: HOP-92 NSCLC
[6] = test system: IGROV1 ovarian
[7] = test system: MOLT-4 leukemia
[8] = test system: NCI-H226 lung
[9] = test system: OVCAR-5 ovarian
[10] = test system: SF-539 CNS
[11] = test system: SK-MEL-5 melanoma
[12] = test system: SNB-19 CNS
[13] = test system: SR leukemia
[14] = test system: SW-620 colon
[15] = test system: TK-10 renal
[16] = test system: UACC-257 melanoma
[17] = test system: UACC-62 melanoma
[18] = test system: A498 renal
[19] = test system: DU-145 prostate

Row | Structure (SMILES) | TGI [1] | TGI [2] | TGI [3] | TGI [4] | TGI [5] | TGI [6] | TGI [7] | TGI [8] | TGI [9] | TGI [10] | TGI [11] | TGI [12] | TGI [13] | TGI [14] | TGI [15] | TGI [16] | TGI [17] | TGI [18] | TGI [19]
1 | Cc1ccc(/C(O)=C/c2nc3c(nc2NC24CC5CC(CC(C5)C2)C4)c(=O)oc2ccccc23)cc1 | > 100 µM | > 100 µM | > 100 µM | > 100 µM | > 100 µM | > 100 µM | > 100 µM | > 100 µM | > 100 µM | > 100 µM | > 100 µM | > 100 µM | > 100 µM | > 100 µM | > 100 µM | > 100 µM | > 100 µM | – | –
2 | COc1ccc(P2(=S)Oc3ccccc3-c3ccccc3O2)cc1 | > 100 µM | 2.77 µM | > 100 µM | – | 85.3 µM | > 100 µM | > 100 µM | > 100 µM | > 100 µM | 0.537 µM | > 79.7 µM | > 100 µM | – | > 100 µM | > 100 µM | > 100 µM | > 100 µM | 4.01 µM | > 100 µM
3 | C/C(=N\n1c(Cc2ccccc2)n[nH]c1=O)c1ccccc1 | > 100 µM | > 100 µM | > 100 µM | > 100 µM | > 100 µM | > 100 µM | > 100 µM | > 100 µM | > 100 µM | > 100 µM | > 100 µM | > 100 µM | – | > 100 µM | > 100 µM | > 100 µM | > 100 µM | > 100 µM | > 100 µM
4 | C1CSCCSCCSCCSC1 | > 100 µM | > 100 µM | > 100 µM | – | > 100 µM | > 100 µM | > 100 µM | > 100 µM | > 100 µM | > 100 µM | > 100 µM | > 100 µM | – | > 100 µM | > 100 µM | > 100 µM | > 100 µM | > 100 µM | > 100 µM
5 | COc1cc2nc(-c3cccs3)nc(N3CCN(c4ccccc4C(F)(F)F)CC3)c2cc1OC | > 100 µM | > 100 µM | > 100 µM | > 100 µM | > 100 µM | > 100 µM | > 100 µM | > 100 µM | > 100 µM | > 100 µM | > 100 µM | > 100 µM | – | > 100 µM | > 100 µM | > 100 µM | > 100 µM | > 100 µM | > 100 µM
6 | NC(=O)c1cc2ccc(O)cc2o/c1=N/NC(=O)c1ccccc1 | > 100 µM | > 100 µM | > 100 µM | > 100 µM | > 100 µM | > 100 µM | > 100 µM | > 100 µM | > 100 µM | – | > 100 µM | > 100 µM | > 100 µM | > 100 µM | > 100 µM | > 100 µM | > 100 µM | > 100 µM | –
7 | Oc1c(Cl)c(Cl)c(O)c(CCNc2ccc3ncccc3c2)c1Cl | 28 µM | 89.2 µM | 30 µM | > 100 µM | > 100 µM | 21 µM | > 100 µM | – | 40.4 µM | 39.4 µM | 5.52 µM | 32.3 µM | 28 µM | 95.6 µM | 36.7 µM | 43.6 µM | 23.8 µM | – | 60 µM
8 | COc1c(OC(C)C)c(OC(C)C)c2oc(=O)n3c2c1C(c1ccccc1-n1c(C)ccc1C)C=C3 (stereo not drawn) | > 100 µM | > 100 µM | > 100 µM | > 100 µM | > 100 µM | > 100 µM | > 100 µM | 38.3 µM | > 100 µM | > 100 µM | > 100 µM | > 100 µM | – | > 100 µM | > 100 µM | > 100 µM | > 100 µM | > 100 µM | > 100 µM
9 | O=S(CC1(O)CCCCC1)c1ccccc1 (stereo not drawn) | > 100 µM | > 100 µM | > 100 µM | > 100 µM | – | > 100 µM | > 100 µM | > 100 µM | > 100 µM | – | > 100 µM | > 100 µM | > 100 µM | > 100 µM | > 100 µM | > 100 µM | > 100 µM | – | > 100 µM
10 | CN=c1c2c(c3[nH]c4ccccc4c4cnc1c34)NCCC2=O | > 10 µM | > 10 µM | > 10 µM | – | > 10 µM | > 10 µM | > 10 µM | > 10 µM | > 10 µM | > 10 µM | > 10 µM | > 10 µM | – | > 10 µM | > 10 µM | > 10 µM | – | > 10 µM | > 10 µM
11 | O=C1/C(=C/c2ccc(OC(=O)c3ccccc3)cc2)CCC/C1=C\c1ccc(OC(=O)c2ccccc2)cc1 | > 100 µM | > 100 µM | > 100 µM | > 100 µM | > 100 µM | > 100 µM | > 100 µM | – | > 100 µM | > 100 µM | > 100 µM | > 100 µM | > 100 µM | > 100 µM | > 100 µM | > 100 µM | > 100 µM | – | > 100 µM
12 | COc1cc(/C=C2\N=C(c3ccccc3)N(c3nc4cc(C)c(C)cc4s3)C2=O)ccc1O | > 100 µM | > 100 µM | > 100 µM | 43.9 µM | > 100 µM | > 100 µM | > 100 µM | – | > 100 µM | 60.9 µM | > 100 µM | > 100 µM | 57.8 µM | > 100 µM | > 100 µM | > 100 µM | > 100 µM | – | > 100 µM
13 | O=C(Nc1ccccc1)c1cc2ccccc2c(N=Nc2ccc([N+](=O)[O-])cc2)c1O | > 100 µM | > 100 µM | > 100 µM | > 100 µM | > 100 µM | > 100 µM | > 100 µM | > 100 µM | > 100 µM | – | > 100 µM | > 100 µM | – | > 100 µM | > 100 µM | > 100 µM | > 100 µM | – | > 100 µM
14 | Cc1cc(C)c(S(=O)(=O)N2CCCN(S(=O)(=O)c3c(C)cc(C)cc3C)OCCCO2)c(C)c1 | > 100 µM | > 100 µM | > 100 µM | > 100 µM | > 100 µM | > 100 µM | > 100 µM | > 100 µM | > 100 µM | – | > 100 µM | > 100 µM | – | > 100 µM | > 100 µM | > 100 µM | > 100 µM | > 100 µM | > 100 µM
15 | CN(C)CC1CN=C(N)O1 (stereo not drawn) | > 100 µM | > 100 µM | > 100 µM | – | > 100 µM | – | > 100 µM | > 100 µM | > 100 µM | > 100 µM | > 100 µM | > 100 µM | – | > 100 µM | > 100 µM | > 100 µM | > 100 µM | > 100 µM | > 100 µM
16 | Cn1c(=O)n2n(c1=O)C(S(=O)(=O)c1ccccc1)C2 (stereo not drawn) | > 100 µM | > 100 µM | > 100 µM | – | > 100 µM | > 100 µM | > 100 µM | – | > 100 µM | > 100 µM | > 100 µM | > 100 µM | – | > 100 µM | > 100 µM | > 100 µM | > 100 µM | – | > 100 µM
17 | CC(=O)[C@@H]1C/C(=C\OCc2ccccc2)O[C@H]1C | > 100 µM | > 100 µM | > 100 µM | – | > 100 µM | > 100 µM | > 100 µM | > 100 µM | > 100 µM | > 100 µM | > 100 µM | > 100 µM | – | > 100 µM | > 100 µM | > 100 µM | – | > 100 µM | > 100 µM
18 | CN1C/C(=C\c2cccs2)C2=NN(C)C(c3cccs3)C2C1 (stereo not drawn) | > 100 µM | > 100 µM | > 100 µM | 43.6 µM | > 100 µM | > 100 µM | > 100 µM | > 100 µM | > 100 µM | – | > 100 µM | > 100 µM | – | > 100 µM | > 100 µM | > 100 µM | > 100 µM | > 100 µM | > 100 µM
19 | O=C(O)C1CCCCC1C(=O)Nn1cnnc1 (stereo not drawn) | > 100 µM | > 100 µM | > 100 µM | – | > 100 µM | > 100 µM | > 100 µM | – | > 100 µM | > 100 µM | > 100 µM | > 100 µM | > 100 µM | > 100 µM | > 100 µM | > 100 µM | > 100 µM | – | > 100 µM
20 | COC(=O)C1=CSC2(S1)C(C(=O)OC)=CSc1c2ssc1=O (stereo not drawn) | 3.61 µM | 4.03 µM | 3.31 µM | 3.45 µM | 4.27 µM | 2.9 µM | > 19.8 µM | 44.9 µM | 21.9 µM | 3.17 µM | 6.62 µM | 16.1 µM | – | 2.93 µM | 6.13 µM | 4 µM | 4.16 µM | 12.5 µM | 3.3 µM
21 | COC(=O)c1ccc(NC(=O)O/N=C(\Cl)C(C)C)cc1 | 3.16 µM | 3.72 µM | 3.49 µM | 3.66 µM | 3.57 µM | 27.6 µM | 6 µM | > 53.6 µM | 32.8 µM | – | 16.1 µM | 31.8 µM | – | 3.77 µM | 10.3 µM | 28.6 µM | 27 µM | 37.6 µM | 35.1 µM
22 | COc1cccc(C2c3cc4c(cc3OC(N3CCOCC3)C2C)OCO4)c1OC (stereo not drawn) | 70.9 µM | 28.2 µM | > 100 µM | – | – | 31.2 µM | 20 µM | – | 43.6 µM | 30.5 µM | 24.5 µM | 24.2 µM | 24.4 µM | > 100 µM | > 100 µM | 48.8 µM | 85.5 µM | – | 28.5 µM
